# Laboratory results reported in ChEMBL document CHEMBL1177772, “Design and synthesis of benzoazepin-2-one analogs as allosteric binders targeting the PIF pocket of PDK1” (Bioorg Med Chem Lett, 2010).
# Residues, ends and D or L forms follow the SMILES beside them.
# Target: T1, 3-phosphoinositide-dependent protein kinase 1 (Homo sapiens, UniProt O15530)
# T1 sequence (O15530 whole entry): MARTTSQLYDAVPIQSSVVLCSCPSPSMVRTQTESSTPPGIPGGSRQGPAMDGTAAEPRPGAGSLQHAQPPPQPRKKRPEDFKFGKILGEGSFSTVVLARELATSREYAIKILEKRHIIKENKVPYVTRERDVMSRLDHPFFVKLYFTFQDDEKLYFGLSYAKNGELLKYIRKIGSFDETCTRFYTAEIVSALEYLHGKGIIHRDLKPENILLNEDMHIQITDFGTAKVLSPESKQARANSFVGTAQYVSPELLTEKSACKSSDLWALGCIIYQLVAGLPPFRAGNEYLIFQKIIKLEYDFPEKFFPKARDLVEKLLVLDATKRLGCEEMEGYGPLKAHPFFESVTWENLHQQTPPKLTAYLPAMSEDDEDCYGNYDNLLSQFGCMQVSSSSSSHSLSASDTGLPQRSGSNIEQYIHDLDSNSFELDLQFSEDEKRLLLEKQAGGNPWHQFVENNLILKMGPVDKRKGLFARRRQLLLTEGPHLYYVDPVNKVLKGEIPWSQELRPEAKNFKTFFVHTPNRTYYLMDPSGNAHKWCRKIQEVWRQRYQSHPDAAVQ
# Assay: Displacement of PIFtide from His-tagged PDK1 by HTRF assay
# Details: not given; call rule not given here
row,Compound,EC50
1,COC(=O)CN1C(=O)C(OC(=O)c2ccccc2)CCc2ccccc21 (stereo unspecified),Not Active
2,O=C(O)CN1C(=O)C(OC(=O)c2ccccc2)CCc2ccccc21 (stereo unspecified),Not Active
3,O=C(O)CN1C(=O)C(NS(=O)(=O)c2ccccc2)CCc2ccccc21 (stereo unspecified),Not Active
4,COC(=O)CN1C(=O)N(Cc2ccccc2)CCc2ccccc21,Not Active
5,COC(=O)CN1C(=O)C(Oc2ccccc2)CCc2ccccc21 (stereo unspecified),Not Active
6,COC(=O)CN1C(=O)C(Nc2ccccc2)CCc2ccccc21 (stereo unspecified),Not Active
7,O=C(O)CN1C(=O)C(Oc2ccccc2)CCc2ccccc21 (stereo unspecified),Not Active
8,O=C(O)CN1C(=O)C(NC(=O)c2ccccc2)CCc2ccccc21 (stereo unspecified),Not Active
9,COC(=O)CN1C(=O)C(NS(=O)(=O)c2ccccc2)CCc2ccccc21 (stereo unspecified),Not Active
10,COC(=O)CN1C(=O)C(NC(=O)c2ccccc2)CCc2ccccc21 (stereo unspecified),Not Active
11,COC(=O)CN1C(=O)C(Sc2ccccc2)CCc2ccccc21 (stereo unspecified),Not Active
12,O=C(O)CN1C(=O)N(Cc2ccccc2)CCc2ccccc21,Not Active

# Same assay, conditions: read-out: EC50
row,Compound,EC50 [µM]
1,O=C(O)CN1C(=O)C(Nc2ccccc2)CCc2ccccc21 (stereo unspecified),900
2,O=C(O)CN1C(=O)C(Sc2ccccc2)CCc2ccccc21 (stereo unspecified),101
3,O=C(O)CN1C(=O)C(Sc2ccc(C(=O)O)cc2)CCc2ccccc21 (stereo unspecified),187
4,O=C(O)CN1C(=O)C(Sc2ccc(Cl)cc2Cl)CCc2ccccc21 (stereo unspecified),75
5,O=C(O)CN1C(=O)C(Sc2c(Cl)cccc2Cl)CCc2ccccc21 (stereo unspecified),45
6,COc1ccc(SC2CCc3ccccc3N(CC(=O)O)C2=O)cc1 (stereo unspecified),53
7,O=C(O)CN1C(=O)C(Sc2ccc(Cl)cc2)CCc2ccccc21 (stereo unspecified),23
8,O=C(O)CSC(CC(=O)c1ccc(Cl)cc1)c1ccccc1 (stereo unspecified),133
9,CC[C@H](C)[C@H](NC(=O)[C@H](Cc1ccc(O)cc1)NC(=O)[C@H](CC(=O)O)NC(=O)[C@H](Cc1ccccc1)NC(=O)[C@H](CC(=O)O)NC(=O)[C@H](CCCNC(=N)N)NC(=O)[C@H](Cc1ccccc1)NC(=O)[C@H](CCSC)NC(=O)[C@H](CCC(=O)O)NC(=O)[C@@H](N)CCC(N)=O)C(=O)N[C@@H](C)C(=O)N[C@@H](CC(=O)O)C(=O)N[C@@H](Cc1c[nH]c2ccccc12)C(=O)O (H-QEMFRDFDYIADW-OH),10
